Experiments:
[1] = tested on: peripheral opioid receptors; experiment: peripherally selective activity (internal results); type: in vivo
Excerpt: The invention embodies usage of any of these compounds or derivatives or metabolites thereof. […] In combinations, any opioid analgesic is a feasible component, embodied in the combination patents mentioned above. An example is a combination product of oxycodone or hydrocodone with 6beta-naltrexol.

mu opioid receptor [2] = biological target: mu opioid receptor (Homo sapiens, UniProt P35372); details: cited from earlier work
Chain of mu opioid receptor (Homo sapiens, UniProt P35372) (P35372 whole entry, species assumed): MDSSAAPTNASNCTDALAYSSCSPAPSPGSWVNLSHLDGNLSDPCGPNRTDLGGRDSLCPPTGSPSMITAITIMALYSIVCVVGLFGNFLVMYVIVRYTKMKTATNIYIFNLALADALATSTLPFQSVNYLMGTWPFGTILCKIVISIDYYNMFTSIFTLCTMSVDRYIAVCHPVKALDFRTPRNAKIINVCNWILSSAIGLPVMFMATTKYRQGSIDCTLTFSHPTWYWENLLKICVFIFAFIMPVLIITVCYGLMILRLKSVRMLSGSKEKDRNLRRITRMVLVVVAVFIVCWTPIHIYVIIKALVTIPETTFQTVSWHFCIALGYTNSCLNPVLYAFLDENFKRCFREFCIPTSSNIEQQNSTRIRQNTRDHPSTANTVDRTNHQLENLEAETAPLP

[3] = tested on: peripheral and central opioid receptors; details: mice, given orally; cited from earlier work
[4] = tested on: spontaneous opioid receptor activity; details: opioid dependent mice, 24 hours after the last morphine dose; cited from earlier work
mu opioid receptor [5] = biological target: T1, mu opioid receptor (Mus musculus, UniProt P42866); experiment: internal unpublished: co-administration with morphine or methadone, subsequent opioid withdrawal, mice; type: in vivo; details: dose as low as 0.01 mg/kg given together with morphine or methadone
T1 construct: from tissue; host or cells: living mice (whole-animal pharmacology)
T1 sequence (P42866 whole entry): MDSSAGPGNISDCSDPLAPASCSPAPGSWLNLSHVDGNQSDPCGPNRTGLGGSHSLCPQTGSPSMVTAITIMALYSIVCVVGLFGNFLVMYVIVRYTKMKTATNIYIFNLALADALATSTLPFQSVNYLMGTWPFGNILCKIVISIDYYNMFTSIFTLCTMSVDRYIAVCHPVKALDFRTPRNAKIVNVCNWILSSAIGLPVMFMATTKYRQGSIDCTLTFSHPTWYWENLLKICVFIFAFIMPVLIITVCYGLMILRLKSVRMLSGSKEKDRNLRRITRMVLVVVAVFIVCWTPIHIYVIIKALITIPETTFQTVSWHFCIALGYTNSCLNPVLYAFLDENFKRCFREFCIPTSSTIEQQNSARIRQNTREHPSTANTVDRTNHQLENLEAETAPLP
Excerpt: (§1) (See Corder G, Doolen S, Donahue R R, Winter M, Jutras B, He Y, Hu X, Wieskopf J S, Mogil J S, Storm D R, Wang Z J, McCarson K E, and Taylor B K, Constitutive μ-opioid receptor activity leads to long-term endogenous analgesia and dependence. Science 2013; 341,1394-1399; Corder G, Tawfik V L, Wang D, Sypek E I, Low S A, Dickinson J R, Sotoudeh C, Clark J D, Barres B A, Bohlen C J, Scherrer (2017). Loss of μ opioid receptor signaling in nociceptors, but not microglia, abrogates morphine tolerance without disrupting analgesia. Nat Med. 23:164-173; J. Oberdick, Y. L., M. A. Phelps, M. S. Yudovich, K. Schilling, and W. Sadee. Preferential delivery of an opioid antagonist to the fetal brain in pregnant mice. J. Pharmacol. Exp. Ther. 358: 22-30 (2016).

mu opioid receptor [6] = experiment: internal unpublished: co-administration with morphine or methadone, subsequent opioid withdrawal, guinea pigs; type: in vivo; details: dose as low as 0.01 mg/kg given together with morphine or methadone
Excerpt: as §1

[7] = biological target: peripheral and central opioid receptors; experiment: blocking morphine iv effects (analgesia, slowing of bowel movement) in opioid naive subjects; type: in vivo, humans
Procedure: Recommended doses are 20 mg (range 10-80 mg) once or twice daily for 4-8 days, then 40 mg (range 20-120 mg) once or twice daily for 1-4 weeks, and if necessary, further escalation to 100 mg (range 40-300 mg) once or twice daily for maintenance. […] Dosing schedules can be facilitated by designing sustained release formulations as described in preceding incorporated patents.

oral bioavailability = type: in vivo; details: value assumed for oral dosing
Procedure: This step applies to opioid use disorders. […] The recommended initial dose is 2 mg naltrexol orally (assuming ˜30% oral bioavailability; estimated dosage range 0.5-10 mg), once or twice daily for 2-4 days, followed by 6 mg once or twice daily for 4-8 days (estimated dosage range 2-20 mg twice daily). Step 1 is designed to suppress peripheral effects of the opioid drug with minimal peripheral withdrawal symptoms, and reverse at least partially opioid dependence.
Opioid antagonist maintenance with 6-beta-naltrexol may require 100 mg (dosage range 40-300 mg) per day orally (assuming 20-40% bioavailability). […] Ceasing opioid use altogether must be medically supervised for at least one year to determine the rate of recidivism.

opioid receptors = details: acutely morphine-dependent mice; cited from earlier work
mu opioid receptor [8] = biological target: T1, mu opioid receptor; details: 0.02 mg/kg co-injected s.c. with 20 mg/kg morphine for several days, juvenile mice; cited from earlier work
[9] = tested on: peripheral and central opioid receptors; details: methadone maintenance subjects, single intravenous dose 0.5-1 mg; cited from earlier work
[10] = in vivo; cited from earlier work
[11] = tested on: rats habituated to high alcohol consumption; details: acute; cited from earlier work
[12] = tested on: peripheral and central opioid receptors; experiment: intravenous 6beta-naltrexol in methadone maintenance subjects
[13] = 4 methadone replacement patients, IV doses up to 1 mg

CC(=O)N[C@@H]1CC[C@@]2(O)[C@H]3Cc4ccc(O)c5c4[C@@]2(CCN3CC2CC2)[C@@H]1O5 [6beta-naltrexamide]
peripherally selective activity [1]: strong peripherally selective activity
type of opioid antagonism (mu opioid receptor [2]): neutral antagonism

O=C1CC[C@@]2(O)[C@H]3Cc4ccc(O)c5c4[C@@]2(CCN3CC2CC2)[C@H]1O5 [naltrexone]
potency in blocking peripheral and central opioid analgesic effects [3]: equally potent
withdrawal elicited by the antagonist [4]: robust withdrawal

Oc1ccc2c3c1O[C@H]1[C@H](O)CC[C@@]4(O)[C@@H](C2)N(CC2CC2)CC[C@]314 [6beta-naltrexol]
subsequent opioid withdrawal (mu opioid receptor [5]): reduces or prevents subsequent opioid withdrawal
subsequent opioid withdrawal (mu opioid receptor [6]): reduces or prevents subsequent opioid withdrawal
IC50 for blocking morphine induced slowing of bowel movement ([7]; iv): ~3 mg
block of analgesia caused by 10 mg morphine iv ([7]; single dose of 20 mg iv, opioid naive subjects): failed to block analgesia
oral bioavailability (oral bioavailability; listed as 6-beta-naltrexol): 20-40%
oral bioavailability (oral bioavailability; listed as naltrexol): ~30%
effect on naloxone induced withdrawal jumping (opioid receptors): prevent naloxone (inverse agonist) induced withdrawal jumping
naloxone-withdrawal jumping after co-injection with morphine (mu opioid receptor [8]): significantly reduced
central withdrawal symptoms [9]: no central withdrawal symptoms
effect on opioid induced constipation [9]: can reverse opioid induced constipation
half-life compared with typical opioid analgesics [10]: longer half-life
alcohol and sucrose intake [11]: prevents both alcohol and sucrose intake acutely, but only at high doses
tolerated IV dose ([12]; 4 methadone replacement patients sensitive to 0.05 mg naloxone i.v.): up to 1 mg
bowel effect [12, 13]: bowel movements
withdrawal symptoms [12, 13]: some additional peripheral, but no central, withdrawal symptoms
